{"source": "patent US7048907B2", "about": "“Synthesis, compositions and methods for the measurement of the concentration of stable-isotope labeled compounds in life forms and life form excretory products” (BioPhysics Assay Laboratory, Inc., priority 2001, dated 2006)", "key": {"[1]": {"assay": "Assay of chelate on carboxymethyl (CM) Sephadex column (chelate formation, charge)", "type": "physicochemical"}, "[2]": {"assay": "Kinetics of blood depletion and urine accumulation of chelates in the rat", "type": "in vivo", "details": "average of three rats", "protocol": "One half ml of Sm-DTPA (0.01 mg/kg), dissolved in saline (pH 7), is injected into the tail vein of three rats. Samples of blood are obtained at 10, 30 and 60 minutes following injection and analyzed for Sm-DTPA by neutron activation. The percent of starting amount of the Sm-DTPA at each time interval is presented in Table 18 (last column on right). Similarly, the accumulation of Sm-DTPA in the rat urine at two times is shown in the last column of Table 18.\nOne half ml of Technetium-99m-DTPA (1 millicurie), Gd-DTPA (0.05 mg/kg), and Sm-DTPA (0.01 mg/kg) are each dissolved in saline (pH 7), and are injected simultaneously into the tail vein of three rats. Samples of blood are obtained at 10, 30 and 60 minutes following injection and analyzed for ^99mTc-DTPA (gamma counting), Gd-DTPA (T1 relaxation) and Sm-DTPA (neutron activation).\nOne half ml of Sm-DTPA, La-DTPA and Eu-DTPA (each 0.01 mg/kg), dissolved in saline (pH 7) are injected simultaneously into the tail vein of three rats. Samples of blood are obtained at 10, 30 and 60 minutes following injection and analyzed for each element by neutron activation.\nSamples of Sm-DTPA, La-DTPA and Eu-DTPA (0.5 ml; 0.01 mg/kg), each dissolved in saline (pH 7), are injected sequentially at 0, 20, and 40 minutes into the tail vein of three rats. Samples of blood are obtained at 10, 30 and 60 min following each injection and analyzed for each element by neutron activation."}, "[3]": {"assay": "Stability of chelates to autoclaving (CM-Sephadex assay)", "type": "physicochemical", "details": "for % of total / dpm: autoclaved 30 minutes at 121° C.", "protocol": "A sample comprising 5 ml of Sm-DTPA, La-DTPA, and Eu-DTPA prepared in Examples 9, 10, and 11 were placed in 10 ml glass bottles, each capped with a grey butyl rubber cap, and the caps were crimped. Samples were autoclaved for 30 minutes at 121° C.\nFive ml of each of Sm-DOTA, La-DOTA, and Eu-DOTA prepared in Examples 13, 14, and 15 were placed in 10 ml glass bottles capped with a grey butyl rubber cap and crimped. Samples were autoclaved for 30 minutes at 121° C. Samples were allowed to cool to room temperature and were assayed as described in Examples 25."}, "[4]": {"details": "Fraction 1: 3 ml 0.01M Tris pH 7.5 before sample"}, "[5]": {"details": "Fraction 2: 1 ml sample then 3 ml 0.01M Tris pH 7.5 (eluate)"}, "[6]": {"details": "Fraction 3: further 3 ml 0.01M Tris pH 7.5"}, "[7]": {"details": "Fraction 4: column and contents (retained)"}, "[8]": {"details": "Fraction 1: sample diluted 1:10 then 2-3 ml 0.01M Tris pH 7.5 (eluate)"}, "[9]": {"details": "Fraction 2: 3 ml 0.01M Tris pH 7.5"}, "[10]": {"details": "Fraction 3: column and contents (retained)"}}}
{"molecule": "O=C([O-])CN(CCN(CC(=O)[O-])CC(=O)[O-])CCN(CC(=O)[O-])CC(=O)[O-].[Eu+3]", "note": "[Eu-DTPA]", "values": [{"measurement": "% eluted from the CM-Sephadex column", "setting": "[1]", "result": 100, "unit": "%"}, {"measurement": "% of total", "setting": "[1]; [4]", "result": "0 % of total"}, {"measurement": "dpm", "setting": "[1]; [4]", "result": 0, "unit": "dpm"}, {"measurement": "% of total", "setting": "[1]; [5]", "result": "100 % of total"}, {"measurement": "dpm", "setting": "[1]; [5]", "result": 22115, "unit": "dpm"}, {"measurement": "% of total", "setting": "[1]; [6]", "result": "0 % of total"}, {"measurement": "dpm", "setting": "[1]; [6]", "result": 0, "unit": "dpm"}, {"measurement": "% of total", "setting": "[1]; [7]", "result": "0 % of total"}, {"measurement": "dpm", "setting": "[1]; [7]", "result": 0, "unit": "dpm"}, {"measurement": "time within which the chelate forms", "setting": "[1]; room temperature, Tris pH 7.5", "result": "≤ 5", "unit": "min"}, {"measurement": "Percent of initial injection, blood", "setting": "[2]; blood 10 min, Sm-DTPA, La-DTPA and Eu-DTPA (each 0.01 mg/kg i.v.) simultaneously administered (Example 31)", "result": "87% of initial injection"}, {"measurement": "Percent of initial injection, blood", "setting": "[2]; blood 10 min after each injection, Sm-DTPA, La-DTPA, Eu-DTPA (0.01 mg/kg i.v.) sequentially administered at 0, 20, 40 minutes (Example 32)", "result": "87% of initial injection"}, {"measurement": "Percent of initial injection, blood", "setting": "[2]; blood 30 min, Sm-DTPA, La-DTPA and Eu-DTPA simultaneously administered (Example 31)", "result": "62% of initial injection"}, {"measurement": "Percent of initial injection, blood", "setting": "[2]; blood 30 min after each injection, sequentially administered (Example 32)", "result": "64% of initial injection"}, {"measurement": "Percent of initial injection, blood", "setting": "[2]; blood 60 min, Sm-DTPA, La-DTPA and Eu-DTPA simultaneously administered (Example 31)", "result": "33% of initial injection"}, {"measurement": "Percent of initial injection, blood", "setting": "[2]; blood 60 min after each injection, sequentially administered (Example 32)", "result": "34% of initial injection"}, {"measurement": "Percent of initial injection, urine", "setting": "[2]; urine 30 min, Sm-DTPA, La-DTPA and Eu-DTPA simultaneously administered (Example 31)", "result": "21% of initial injection"}, {"measurement": "Percent of initial injection, urine", "setting": "[2]; urine 30 min, sequentially administered (Example 32)", "result": "26% of initial injection"}, {"measurement": "Percent of initial injection, urine", "setting": "[2]; urine 180 min, Sm-DTPA, La-DTPA and Eu-DTPA simultaneously administered (Example 31)", "result": "96% of initial injection"}, {"measurement": "Percent of initial injection, urine", "setting": "[2]; urine 180 min, sequentially administered (Example 32)", "result": "97% of initial injection"}, {"measurement": "% eluted from CM-Sephadex column following autoclaving", "setting": "[3]", "result": 100, "unit": "%"}, {"measurement": "% of total", "setting": "[3]; [8]", "result": "97 % of total"}, {"measurement": "dpm", "setting": "[3]; [8]", "result": 380954, "unit": "dpm"}, {"measurement": "% of total", "setting": "[3]; [9]", "result": "3 % of total"}, {"measurement": "dpm", "setting": "[3]; [9]", "result": 13226, "unit": "dpm"}, {"measurement": "% of total", "setting": "[3]; [10]", "result": "0 % of total"}, {"measurement": "dpm", "setting": "[3]; [10]", "result": 0, "unit": "dpm"}]}
